Blank lines part the entries; values can stand above or below the compound they belong to.
What was measured:
MHEC-5T tumors = assay: Reduction in tumor blood flow / functional tumor vessels (fluorescent beads); format: in vivo, mice; settings: for ED50 (vascular effect): functional vessel number per mm^2, i.p., 24 hr; for ED50 (vascular effect) / reduction in tumor blood flow: MHEC-5T tumors; for blood flow in the central region of tumors: spatial distribution of blood vessel shutdown; for reduction in tumor blood flow: 24 hr post-drug
Protocol: (§1) Catechols were dissolved in 50% DMSO (2 mg/kg) prior to intravenous (iv) administration (i.v.) to tumor-bearing mice. MHEC-5T tumors were established by subcutaneous injection of 0.5×10^6 cultured MHEC5-T cells (German Collection of Microorganisms and Cell Culture, Braunschweig, Germany) into the right flank of Fox Chase CB-17 severe combined immunodeficient (SCID) mice. Tumor grafts grew palpable within one week and reached the limited size (15×15 mm) within 10 days. Tumor bearing mice were injected intraperitoneally with saline control or various dosages of CA1P or CA4P after the transplanted tumor reached a size of 300 mm^3 (a size without development of necrosis). Twenty-four hours later they were injected with 0.25 ml of fluorescent FluoSphere beads (0.1 μm beads conjugated with blue fluorescent tag (F-8789, Molecular Probes, Eugene, Oreg.) and diluted 1:6 in physiological saline) in the tail vein, and sacrificed after 3 minutes. Tumors were then excised for cryosections. Cryosections of 8 μm thickness were directly examined under a fluorescent microscope. Functional blood vessels were indicated by blue fluorescence from injected microbeads. For quantification, three sections from three tumors treated in each group were examined and in each section, more than 70% of the area was automatically recorded with a microscopic digital camera at ×10 magnification. A computer program named Stage Pro (Media Cybernetics, Md.) was used to control the picture recording. Image analysis was performed with Image Plus software (Media Cybernetics, Md.). The results were expressed as vessel area per mm^2 in percentage of the control in Table 2.
as §1, with “The effect of CA1P on tumor blood flow was evaluated by quantifying the number of functional tumor vessels” for “Catechols were dissolved”, “treated murine tumors.” for “50% DMSO (2 mg/kg) prior to intravenous (iv) administration (i.v.) to tumor-bearing mice.”, “as in Example 4c.” for “by subcutaneous injection of 0.5×10^6 cultured MHEC5-T cells (German Collection of Microorganisms and Cell Culture, Braunschweig, Germany) into the right flank of Fox Chase CB-17 severe combined immunodeficient (SCID) mice. Tumor grafts grew palpable within one week and reached the limited size (15×15 mm) within 10 days.”, “MD)” for “Md.)”, “MD).” for “Md.).”, “control.” for “control in Table 2.”

[1] = test system: murine adenocarcinoma CaNT; assay: Tumor growth control in CaNT murine tumor model; format: in vivo, mice; settings: single doses of 100, 200, and 400 mg/kg i.p., FIG. 5
Protocol: The murine adenocarcinoma CaNT was grown subcutaneously on the back of 12- to 16-week old CBA/Gy fTO mice. Tumors were initiated by the injection of 0.05 ml of a crude tumor cell suspension prepared from a donor mouse. Animals were selected for treatment after 3 or 4 weeks, when tumors had reached a geometric mean diameter of 5 to 6.5 mm. CA1P and CA4P were dissolved in 0.9% saline at various concentrations and injected intraperitoneally into tumor bearing mice. Each treatment group consisted of between five and nine mice. A control treatment group was injected with 0.9% saline.

[2] = test system: murine adenocarcinoma CaNT; assay: Functional vascular volume of tumor vessels (Hoechst 333342); format: in vivo, mice
Protocol: The effect of CA1P on tumor blood flow was evaluated by quantification of the functional volume of tumor vessels in treated murine tumors using a procedure previously described in detail and incorporated by reference herein (Smith K A, Br. J. Cancer, 57:247-253, 1988). The murine adenocarcinoma CaNT was grown subcutaneously on the back of 12- to 16-week old CBA/Gy fTO mice. Tumors were initiated by the injection of 0.05 ml of a crude tumor cell suspension prepared from a donor mouse. Animals were selected for treatment after 3 or 4 weeks, when tumors had reached a geometric mean diameter of 5 to 6.5 mm. CA1P and CA4P were dissolved in 0.9% saline at various concentrations and injected intraperitoneally into tumor bearing mice. Each treatment group consisted of between five and nine mice. A control treatment group was injected with 0.9% saline. At 24 hours post-injection, each mouse was injected intravenously with a 10 mg/kg dose of the fluorescent DNA-binding dye Hoechst 333342 and sacrificed 1 minute later. Tumors were immediately excised and bisected. Frozen tumor sections were cut at three levels and viewed under UV excitation where the fluorescent staining of perivascular cells identified perfused vessels. Vascular volumes were quantified based on a random point scoring system previously described and incorporated by reference herein (Chalkley H W, J. Natl Cancer Institute, 4: 47-53, 1943). All estimates were based on counting 100 fields from sections cut at each of the 3 different levels and the calculated vascular volumes were expressed as a percentage of the mean value for control tumors.

Purified tubulin = assay: Inhibition of tubulin polymerization (turbidimetric, 350 nm); format: biochemical; settings: purified tubulin 1 mg/ml, read-out: Tubulin Binding (uM IC50)
Protocol: The method of Verdier-Pinard (1998, Molec. Pharmacol. 53, 62-76) was used to assay catechol compounds for inhibition of tubulin polymerization. Tubulin polymerization was followed turbidimetrically at 350 nm on an Agilent 8453 spectrophotometer equipped with a kinetics program, a jacketed cell holder, and two microprocessor-controlled water baths. Purified tubulin (1 mg/ml) was induced to polymerize in a monosodium glutamate/GTP solution by a jump in temperature. Absorbance was recorded every 10 seconds and the data was analyzed by a GraphPad Prism program.

tumor cells = assay: Tumor cell cytotoxicity, MTT assay; format: cell-based; settings: for IC50: tumor cells treated for 24 hours
Protocol: Exponentially growing tumor cells were treated with the following compounds for 24 hours. Insoluble compounds were formulated in a small amount (0.3%) of DMSO for biological evaluation. Cell viability was determined by the calorimetric MTT assay using 3(4,5-dimethylthiazol-2-yl)-2,5-diphenyl-2H-tetrazolium bromide according to well-established procedures (see Berridge, et al. (1996) for a general protocol of this type of assay).

[3] = biological target: T1, Horseradish peroxidase (HRP) (Armoracia rusticana, UniProt P00433); assay: Peroxidase-mediated activation of catechols (HPLC loss of peak area); format: biochemical; settings: for Relative Activation (% Control): relative to non-catechol control = 100; for Slope/Hrp: slope divided by HRP concentration (ug/ml): corrected disappearance
T1 construct: purchased Sigma P6782
T1 sequence (P00433 31-338 limits assumed): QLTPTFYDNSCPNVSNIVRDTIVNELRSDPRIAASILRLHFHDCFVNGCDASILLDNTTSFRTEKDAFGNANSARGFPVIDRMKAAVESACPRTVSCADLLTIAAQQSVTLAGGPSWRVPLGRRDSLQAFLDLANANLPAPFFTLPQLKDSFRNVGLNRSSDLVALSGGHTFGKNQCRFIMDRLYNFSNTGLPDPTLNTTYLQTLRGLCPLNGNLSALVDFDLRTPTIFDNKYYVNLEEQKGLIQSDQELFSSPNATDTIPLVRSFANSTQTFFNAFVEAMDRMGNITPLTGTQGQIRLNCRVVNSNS
Protocol: Methods: catechols were dissolved in DMSO immediately prior to assay (10 mM). HRP (Sigma, P6782, 1000 units/mg), was dissolved in phosphate buffered saline (PBS) at a concentration of 40 ug/ml. Fresh hydrogen peroxide (50 mM) was prepared from a 30% w/w solution (Sigma, H1009). Incubations were carried out in a water bath maintained at 37° C. Exact volumes varied depending on the catechol, but typically they comprised 1.92 ml PBS, 20 μl DMSO, 20 μl hydrogen peroxide and 20 μl drug in a 4 ml amber glass vial. Prior to addition of the drug, the vial was pre-incubated for 10 min. The reaction was initiated by the addition of 20 μl HRP. Samples (100 μl) were then removed at intervals, added to 100 μl acetonitrile and placed on ice. At the end of the incubation, samples were centrifuged (12000 g, 1 min) to remove precipitated protein and the supernatants placed in polypropylene hplc vials for analysis. Control incubations containing no HRP were carried out in the same way.
HPLC was performed using a Waters 2695 Separations Module with a sample compartment maintained at 10° C., and a Waters 2996 Photodiode Array Detector. The column was an ACE C18, 3 μm particle size, 125×3 mm (Hichrom) maintained at 30° C. Compounds were eluted with varying proportions of A: 5 mM KH2PO4, 5 mM H3PO4, and B: 75% acetonitrile, 25% water at a flow rate of […], in order to achieve a similar starting peak area for each catechol. Occasionally, in order to achieve a better resolution of the products, the latter was replaced with 100% methanol. Spectral data was collected from 220 nm to 500 nm, sampling rate 2/sec, 1.2 nm resolution. Data was analysed using Waters Millennium software.
Results: The loss of peak area at 300 nm of the prodrug was plotted against time, and a straight line fitted to the data. Loss of peak area was used to approximate the relative rates of loss of each catechol. The slope of the line-of-best-fit was then divided by the HRP concentration to give a corrected disappearance (see Table 3).

tumor xenografts = assay: Evaluation of tumor xenografts treated with CA1P; format: in vivo
Text: It is expected that in the highly oxygenated regions of the tumor, such as the tumor rim, that are resistant to tumor blood shutdown, CA1 is readily oxidized to its corresponding quinone, and is able to render a single agent response due to this second mechanism of action.

[4] = Recovery of CA1 from plasma; format: in vitro ADME; settings: in the presence of ascorbic acid in the extraction mixture
Text: In blood, the ortho catechol CA1 is susceptible to oxidation. […] The recovery of CA1 was resolved by incorporation of ascorbic acid as an antioxidant in the extraction mixture. In the presence of ascorbic acid the recovery of CA1 from plasma was increased to approximately 90%.

[5] = Reaction of ortho-quinone with glutathione and ascorbate (stopped-flow, HPLC); format: physicochemical; settings: stopped-flow rapid mixing, FIG. 1A
Text: The formation of each quinone was examined by reacting its corresponding catechol with excess FeCl3/H2SO4 and monitoring the reaction by HPLC. The identity of each quinone was confirmed by HPLC-MS (mass 330, λmax 312, 422 nm).

[6] = Stability of quinone product (TLC and NMR); format: physicochemical; settings: in D7 DMF, following the initiation of the reaction
Protocol: To a solution of Combretastatin A-4 (0.032 g, 0.100 mmol; OXiGENE, Inc.) was added Iodoxybenzoic acid (0.028 g, 0.099 mmol) in D7 DMF (4 ml) with stirring by vortex for ½ hr. Completion of the reaction was indicated by the disappearance of the initial yellowish slurry and the appearance of a clear solution of a deep red color. ^1H-NMR was performed immediately as the quinone product was highly unstable and degraded within a ½ hr following the initiation of the reaction, as indicated by TLC and NMR.

tubulin = settings: cited from earlier work
[7] = cited from earlier work

SMILES: COc1ccc(/C=C\c2cc(OC)c(OC)c(OC)c2)cc1OP(=O)([O-])[O-].[Na+].[Na+] [CA4P, Combretastatin A-4 Disodium Phosphate Prodrug, reference compound]
ED50 (vascular effect) (MHEC-5T tumors): 43 mg/kg
blood flow in the central region of tumors (MHEC-5T tumors): blood flow reduction
effect on tumor growth [1]: no measurable effect on tumor growth
effect on vascular volume ([2]; doses below 50 mg/kg i.p.): no significant effect
dose required to produce an effect similar to that of 1 mg/kg of CA1P ([2]; functional vascular volume): 25 mg/kg

SMILES: COc1cc(/C=C\c2cccc(O)c2O)cc(OC)c1OC [ZSB-82, 6-[(Z)-2-(3,4,5-Trimethoxyphenyl)vinyl]-1,2-dihydroxybenzene]
IC50 (Purified tubulin): 6.2 µM
IC50 (tumor cells; 24 h): 0.143 µM
Relative Activation (% Control) [3]: 0.029 % Control
Slope/Hrp [3]: −1269800

SMILES: COc1cc(/C=C\c2ccc(OC)c(OP(=O)(O)O)c2OP(=O)(O)O)cc(OC)c1OC [CA1P, Combretastatin A-1 diphosphate]
antiproliferative activity against tumor cells in vitro (tumor cells; in comparison to CA4P): inferior
ED50 (vascular effect) (MHEC-5T tumors): 3 mg/kg
blood flow in the peripheral region of tumors (MHEC-5T tumors; periphery = rim of width 10% of the tumor diameter): reduced the blood flow in the peripheral region as well
reduction in tumor blood flow (MHEC-5T tumors; single i.p. injection 3 mg/kg): 50%
reduction in tumor blood flow (MHEC-5T tumors; single i.p. injection 6 mg/kg): 74%
reduction in tumor blood flow (MHEC-5T tumors; single i.p. injection 50 mg/kg): 90%
blood flow in the central region of tumors (MHEC-5T tumors): blood flow reduction
effect on tumor growth [1]: significant tumor growth delay
reduction of the percentage of functional vasculature in the tumor ([2]; 1 mg/kg i.p. (lowest dose), 24 hours): over 50%
tumor cell destruction by location (tumor xenografts): not only destroyed centrally located tumor cells but also cells located at the periphery of the tumor

SMILES: COc1cc(/C=C\c2cc(Br)cc(O)c2O)cc(OC)c1OC [ZSB-74, 4-Bromo-6-[(Z)-2-(3,4,5-trimethoxyphenyl)vinyl]-1,2-dihydroxybenzene]
IC50 (Purified tubulin): 2.1 µM
IC50 (tumor cells; 24 h): 0.34 µM
Relative Activation (% Control) [3]: 0.203 % Control
Slope/Hrp [3]: −182825

recovery [4]: ~90%
SMILES: COc1ccc(/C=C\c2cc(OC)c(OC)c(OC)c2)c(O)c1O [CA1, Combretastatin A-1]
IC50 (tumor cells): 0.0046 µM
Blood Flow at 10 mg/kg (% vessel area of control) (MHEC-5T tumors; 10 mg/kg, MHEC-5T tumor-bearing SCID mice, 24 hours after dosing): 30 % vessel area of control

SMILES: COC1=CC=C(/C=C\c2cc(OC)c(OC)c(OC)c2)C(=O)C1=O [CA-1 Ortho-Quinone]
reaction with glutathione and ascorbate [5]: react rapidly
time to degradation of quinone product [6]: ½

SMILES: COc1ccc(/C=C\c2cc(OC)c(OC)c(OC)c2)cc1O [CA-4, Combretastatin A-4]
tubulin binding activity (tubulin): potent
solubility in human plasma [7]: insolubility

Source: patent publication US8198302B2 (OXiGENE, Inc., priority 2004, dated 2012)
